Assay results published in US20210000830A1, “CANCER TREATMENT METHOD USING Trk INHIBITOR AND KINASE INHIBITOR IN COMBINATION” (ONO PHARMACEUTICAL CO., LTD., priority 2017, published 2021).

How the values were obtained:
[1] = tested on: ETV6-NTRK3 positive human leukemia cell lines IMS-M2; test: Growth inhibition experiment in ETV6-NTRK3 positive IMS-M2 cell lines (combination index); type: cell-based; conditions: named kinase inhibitor used in combination with compound A; IMS-M2 cells, 72 hours; CI<1 synergistic
Description: Cells were subcultured using an RPMI culture medium containing a 10 vol % FBS and 1 vol % penicillin-streptomycin liquid before they underwent the experiment.
On the day when the compound was treated, cells were collected from a culture flask into a centrifuge tube. At room temperature, 300 g of cells were centrifuged for 3 minutes, and the cell sediment was then suspended in the RPMI culture medium.
The diluted solution of each compound and DMSO were diluted 100-fold in a culture medium to prepare a 10-fold concentration of the treatment solution of each compound and the medium solution.

[2] = tested on: TPM3-NTRK1-positive human colon cancer cell lines KM12; test: Growth inhibition test in TPM3-NTRK1 positive KM12 cell lines (CellTiter-Glo, combination index); type: cell-based; conditions: named kinase inhibitor used in combination with compound A; KM12 cells, 72 hours; CI<1 synergistic
Description: Pharmacological Experiment Example 3: Growth Inhibition Test in TPM3-NTRK1 Positive KM12 Cell Lines
Using KM12 as TPM3-NTRK1-positive human colon cancer cell lines, an effect when 1-{2-[4-(2-amino-5-chloro-3-pyridinyl)phenoxy]-5-pyrimidinyl}-3-[2-(methylsulfonyl)-5-(trifluoromethyl)phenyl]urea (hereinafter sometimes referred to as a compound A) and trametinib, selumetinib, palbociclib, afatinib or erlotinib were combined was evaluated. Cells were subcultured using a DMEM containing a 10 vol % inactivated fetal bovine serum (FBS) and 1 vol % penicillin-streptomycin liquid as a culture medium before they underwent the experiment.
One day before the compound was treated, cells were floated using 0.25% Trypsin-EDTA, and the cells were collected into a centrifuge tube from a culture flask. At room temperature, 180 g of the cells were centrifuged for 3 minutes, and the cell sediment was then suspended in a DMEM culture medium. A part of the cell suspension was collected, the number of cells was counted, and the cells were then suspended in the DMEM culture medium at a cell density of 3.75×10^4 cells/mL to prepare a cell suspension. The cell suspension was inoculated at 80 μL/well in a 96-well tissue culture plate (Asahi Glass Co., Ltd.), and left for 24 hours under 37° C., 5% CO2, and 95% air conditions.
On the day when the compound was treated, 10 mM of each compound (DMSO solution) was serially diluted with DMSO to prepare a diluted solution. The diluted solution of each compound and DMSO were diluted 100-fold in a culture medium to prepare a 10-fold concentration of the treatment solution of each compound and the medium solution. The compound A solution or medium solution prepared above was added at 10 μL/well to wells of a 96-well tissue culture plate in which cells were stationary-cultured for 24 hours. Then, in the same manner, the trametinib, selumetinib, palbociclib, afatinib or erlotinib solution or the medium solution was added at 10 μL/well to wells of the 96-well tissue culture plate. […]
After the stationary culture was completed, a luminescent signal (relative luminescent unit, RLU) of each well was measured by a microplate reader using a CellTiter-Glo Luminescent Cell Viability Assay kit (Promega, G7571). An average value of RLUs of 3 wells of a medium group (a group treated with a medium solution having a compound concentration of zero (0)) was calculated, and a growth inhibition rate in each well was calculated by the following mathematical formula. […]
In order to analyze the combined effect, using a fluorescence intensity, the effective dose (ED)50, ED75, ED90 and ED95 were calculated, and a combination index (CI) described in Advances in enzyme regulation, vol. 22, 1984, pp. 27-55 was calculated for analysis. […]

[3] = tested on: KM12-AR (compound A resistant KM12 cell lines); test: Growth inhibition test in compound A resistant KM12 cell lines (KM12-AR); type: cell-based, human; conditions: KM12-AR cells; single treatment
Description: Pharmacological Experiment Example 5: Growth Inhibition Test in Compound a Resistant KM12 Cell Lines
Using KM12 as TPM3-NTRK1-positive human colon cancer cell lines, a strain resistant to the compound A was established. A DMEM (Life technologies, product number: 11965) containing a 10 vol % FBS and 1 vol % penicillin-streptomycin liquid was prepared as a culture medium. The thawed KM12 was suspended in the culture medium. At room temperature, 180 g was centrifuged for 3 minutes, the supernatant was removed by suction, and the cell sediment was then re-suspended in the culture medium, and a total amount of 50 mL was inoculated in a 225 cm^2 flask (Asahi Glass Co., Ltd.). […]
Then, every two or three days, the culture medium was replaced or subcultured. […] The cell sediment was suspended in the DMEM culture medium, a part of the cell suspension was then collected, and the number of viable cells was counted. […]
Using KM12-AR, an effect when the compound A and trametinib, selumetinib, palbociclib, gefitinib, erlotinib, afatinib, lapatinib, neratinib or canertinib were combined was evaluated. […]
On the day when the compound was treated, 10 mM of each compound (DMSO solution) was serially diluted with DMSO to prepare a diluted solution. […] After the compound was added, the growth inhibition rate was calculated in the same method as in Pharmacological Experiment Example 3.

Compound | CI (median value) [1] | CI (median value) [2] | growth inhibitory effect, treated alone [3]
Cn1cnc2c(F)c(Nc3ccc(Br)cc3Cl)c(C(=O)NOCCO)cc21 [Selumetinib, selumetinib] | 0.549 | 0.674 | 
CS(=O)(=O)c1ccc(C(F)(F)F)cc1NC(=O)Nc1cnc(Oc2ccc(-c3cc(Cl)cnc3N)cc2)nc1 [1-{2-[4-(2-amino-5-chloro-3-pyridinyl)phenoxy]-5-pyrimidinyl}-3-[2-(methylsulfonyl)-5-(trifluoromethyl)phenyl]urea] |  |  | no growth inhibitory effect was observed
CN(C)C/C=C/C(=O)Nc1cc2c(Nc3ccc(F)c(Cl)c3)ncnc2cc1O[C@H]1CCOC1 [Afatinib, afatinib] | 0.869 | 0.861 | 
CC(=O)c1c(C)c2cnc(Nc3ccc(N4CCNCC4)cn3)nc2n(C2CCCC2)c1=O [Palbociclib, palbociclib] | 0.719 | 0.660 | 
CC(=O)Nc1cccc(-n2c(=O)n(C3CC3)c(=O)c3c(Nc4ccc(I)cc4F)n(C)c(=O)c(C)c32)c1 [Trametinib, trametinib] | 0.652 | 0.705 | 
